Reference: US20110082410A1 (priority 2009, published 2011)

Columns and labels:
[1] = topical, compared to ALA; cited from earlier work
hair follicle = assay: Pulsed PDT for removal of unwanted hair with the photosensitizer methylene blue: pain during irradiation; conditions: for PAIN: 665 nm
[2] = local anesthesia: infiltrating, spraying or topical solution for transdermal delivery; cited from earlier work
[3] = system: superficial basal cell carcinomas; conditions: low irradiance of range 10-50 mW/cm^2; cited from earlier work

Compound: COC(=O)CCC(=O)CN [methyl-ester-ALA]
- Pain during illumination [1]: significantly less pain compared to ALA

Compound: CN(C)c1ccc2nc3ccc(=[N+](C)C)cc-3sc2c1 [methylene blue]
- PAIN (hair follicle; 5 s CW irradiation, 10 W/cm^2): very painful
- Effectiveness of pulsed PDT for removal of unwanted hair (hair follicle; pulsed radiation): effective without pain
- PAIN (hair follicle; trial 1: 2 pulses, pulse on 2.5 s, pulse off 0.5 s, 0.33 Hz, 50 J/cm^2, 10 W/cm^2): Very high to unbearable
- PAIN (hair follicle; trial 2: 5 pulses, pulse on 1 s, pulse off 0.5 s, 0.67 Hz, 50 J/cm^2, 10 W/cm^2): High
- PAIN (hair follicle; trial 3: 10 pulses, pulse on 0.5 s, pulse off 0.5 s, 1.00 Hz, 50 J/cm^2, 10 W/cm^2): Intermediate to small
- PAIN (hair follicle; trial 4: 14 pulses, pulse on 0.35 s, pulse off 0.5 s, 1.18 Hz, 50 J/cm^2, 10 W/cm^2): None
- PAIN (hair follicle; trial 5: 14 pulses, pulse on 0.35 s, pulse off 0.1 s, 2.22 Hz, 50 J/cm^2, 10 W/cm^2): None

Compound: CCN(CC)CC(=O)Nc1c(C)cccc1C [lidocaine]
- Improvement of PDT-associated discomfort and pain [2]: not produced any significant improvement

Compound: NCC(=O)CCC(=O)O [delta-ALA, δ-Aminolevulinic Acid]
- Pain induced by PDT treatment [3]: no significant pain was reported
